Test results taken from patent US9686993B2 (priority 2005, dated 2017).
Where two headings read alike, the source gives them in different places.

Experiments:
[1] = test system: Fusarium graminearum, Fusarium culmorum, or Fusarium avenaceum (mycotoxin production, DON); details: in vivo
[2] = test system: wheat scab (Fusarium graminearum, Fusarium culmorum, or Fusarium avenaceum); assay type: in vivo; details: for Medicinal Benefit Control Value: relative to no treatment; for Medicinal Benefit (number of infected berries in 1000 berries): sprayed once at GSs 65 to 71, no treatment 203

`COC(=O)NC(=S)Nc1ccccc1NC(=S)NC(=O)OC` [Cercobin M, thiophanate-methyl] was tested. Which “amount of mycotoxin production (DON concentration), result in words” value [1] did it give?
The value was “inhibited in a dose-dependent manner”.

What about the “Medicinal Benefit Control Value” ([2]; 250 g ai/ha) of the same compound?
Its value is 6.4%.

And the “Medicinal Benefit (number of infected berries in 1000 berries)” value ([2]; 250 g ai/ha)?
Its value is 190.

What about the “medicinal benefit (number of infected berries in 1000 berries), result in words” value ([2]; 250 to 500 g ai/ha (combination 500 + 120 g ai/ha), versus no treatment) of the same compound?
Its value is “almost no difference”.

What about the “Medicinal Benefit Control Value” ([2]; 375 g ai/ha) of the same compound?
The value was 7.4%.

And the “Medicinal Benefit (number of infected berries in 1000 berries)” value ([2]; 375 g ai/ha)?
Its value is 218.

And the “Medicinal Benefit Control Value” ([2]; 500 g ai/ha)?
Its value is 11.3%.

What about the “Medicinal Benefit (number of infected berries in 1000 berries)” value ([2]; 500 g ai/ha) of the same compound?
Its value is 180.
